Columns and labels:
PIM2 = PIM2 (Homo sapiens, UniProt Q9P1W9); assay: Pim 2 AlphaScreen assay (high ATP); assay type: biochemical; details: read-out: Pim2 IC50
Outline: (§1)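 IC50 values rest on detection of phosphorylated Bad peptide: after a ~2 h kinase reaction, an EDTA stop buffer containing anti-phospho Ser/Thr antibody, Protein A and streptavidin AlphaScreen beads was added and read after overnight dark incubation. ATP was high (11-125× Km), with 2.5% DMSO in pH 7.5 Hepes buffer containing MgCl2, BSA, Tween-20 and DTT.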

[1] = test system: KMS11 (human myeloma cell line); assay: Cell proliferation assay (CellTiter-Glo), KMS11; assay type: cell-based; details: Homo sapiens, KMS-11; KMS11 cells, cell proliferation; read-out: KMS11-Luc EC50
Outline: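 EC50 derived from CellTiter-Glo luminescence after 3-day exposure at 37° C. Compound was diluted to 2× in medium and added to an equal volume of cells. KMS11 myeloma cells were plated on assay day at 2000/well in IMDM with 10% FBS and sodium pyruvate.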

GSK3β = GSK3β (Homo sapiens, UniProt P49841); assay: GSK3β ATP depletion assay; assay type: biochemical; details: ATP depletion assay; read-out: GSK3b IC50
Outline: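 Kinase activity is read as ATP consumption: luciferase luminescence reports the ATP remaining once roughly half of the 2 μM ATP is used. Reaction mix: 5 nM GSK3β, 10 μM b-CREB peptide, 50 mM Tris pH 7.5, 15 mM MgCl2, 1 mM DTT, 0.1% BSA, 2.5% DMSO. Enzyme and peptide are preincubated 15 min before ATP is added.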

PIM3 = PIM3 (Homo sapiens, UniProt Q86V86); assay: Pim 3 AlphaScreen assay (high ATP); assay type: biochemical; details: read-out: Pim3 IC50
Outline: as §1

PIM1 = PIM1 (Homo sapiens, UniProt P11309); assay: Pim 1 AlphaScreen assay (high ATP); assay type: biochemical; details: read-out: Pim1 IC50
Outline: as §1

Chain of GSK3β (P49841 whole entry, species assumed): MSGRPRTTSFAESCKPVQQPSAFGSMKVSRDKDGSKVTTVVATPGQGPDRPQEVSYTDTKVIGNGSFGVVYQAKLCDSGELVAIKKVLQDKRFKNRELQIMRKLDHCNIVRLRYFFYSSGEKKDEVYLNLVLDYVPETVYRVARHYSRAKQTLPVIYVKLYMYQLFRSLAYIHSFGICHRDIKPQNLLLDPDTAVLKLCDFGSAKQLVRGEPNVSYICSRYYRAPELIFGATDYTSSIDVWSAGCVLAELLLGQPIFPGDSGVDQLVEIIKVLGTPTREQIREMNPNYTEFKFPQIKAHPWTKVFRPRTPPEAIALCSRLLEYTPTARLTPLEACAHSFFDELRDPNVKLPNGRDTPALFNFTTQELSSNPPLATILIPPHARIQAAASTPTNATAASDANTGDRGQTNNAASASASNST
Chain of PIM2 (Q9P1W9 whole entry): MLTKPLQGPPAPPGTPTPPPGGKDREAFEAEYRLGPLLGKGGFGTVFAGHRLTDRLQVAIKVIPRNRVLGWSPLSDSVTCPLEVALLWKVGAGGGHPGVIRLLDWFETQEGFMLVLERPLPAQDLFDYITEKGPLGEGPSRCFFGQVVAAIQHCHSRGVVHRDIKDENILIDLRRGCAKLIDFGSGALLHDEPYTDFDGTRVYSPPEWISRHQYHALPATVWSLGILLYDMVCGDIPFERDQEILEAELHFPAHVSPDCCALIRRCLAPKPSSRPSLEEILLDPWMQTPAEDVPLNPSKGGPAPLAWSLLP
Chain of PIM1 (P11309 whole entry): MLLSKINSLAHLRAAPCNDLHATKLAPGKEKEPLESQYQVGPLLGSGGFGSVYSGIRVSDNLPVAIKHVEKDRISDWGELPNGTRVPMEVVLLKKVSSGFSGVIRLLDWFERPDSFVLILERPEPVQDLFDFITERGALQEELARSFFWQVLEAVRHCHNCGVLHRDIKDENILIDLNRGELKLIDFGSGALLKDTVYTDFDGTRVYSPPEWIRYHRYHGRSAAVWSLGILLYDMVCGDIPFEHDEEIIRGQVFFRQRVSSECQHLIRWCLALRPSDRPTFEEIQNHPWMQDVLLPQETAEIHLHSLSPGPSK

Row | IC50 (PIM2) | EC50 [1] | IC50 (GSK3β) | IC50 (PIM3) | IC50 (PIM1) | Compound
1 | 2200 nM | > 10000 nM | > 25000 nM | 1930 nM | 27.5 nM | CS(=O)(=O)c1cc(F)c(-c2nc(C(=O)Nc3cnccc3[C@@H]3C[C@H](N)[C@@H](O)[C@H](C4CC4)O3)ccc2F)c(F)c1 [Example 326, N-(4-((2S,4S,5R,6S)-4-amino-6-cyclopropyl-5-hydroxytetrahydro-2H-pyran-2-yl)pyridin-3-yl)-6-(2,6-difluoro-4-(methylsulfonyl)phenyl)-5-fluoropicolinamide]
2 | 8.6 nM | 360 nM | 128 nM | 1.4 nM | 0.06 nM | Cc1cc(F)c(-c2nc(C(=O)Nc3cnccc3[C@@H]3C[C@@H](N)CC(C)(C)O3)ccc2F)c(F)c1 [Example 313, N-(4-((2S,4R)-4-amino-6,6-dimethyltetrahydro-2H-pyran-2-yl)pyridin-3-yl)-6-(2,6-difluoro-4-methylphenyl)-5-fluoropicolinamide]
3 | 11.7 nM | 200 nM | 121 nM | 1.5 nM | 0.07 nM | COCCOc1cc(F)c(-c2nc(C(=O)Nc3cnccc3[C@@H]3C[C@@H](N)CC(C)(C)O3)ccc2F)c(F)c1 [Example 315, N-(4-((2S,4R)-4-amino-6,6-dimethyltetrahydro-2H-pyran-2-yl)pyridin-3-yl)-6-(2,6-difluoro-4-(2-methoxyethoxy)phenyl)-5-fluoropicolinamide]
4 | 310 nM | 4200 nM |  | 157 nM | 6.3 nM | CC[C@@H]1O[C@H](c2ccncc2NC(=O)c2ccc(F)c(-c3c(F)cccc3F)n2)C[C@H](N)[C@H]1O [Example 332, N-(4-((2S,4S,5R,6S)-4-amino-6-ethyl-5-hydroxytetrahydro-2H-pyran-2-yl)pyridin-3-yl)-6-(2,6-difluorophenyl)-5-fluoropicolinamide]
5 | 5.1 nM | 60 nM | 4390 nM | 5.76 nM | 0.27 nM | CNC(=O)c1ccc(F)c(-c2nc(C(=O)Nc3cnccc3C3C[C@@H](N)[C@H](O)[C@@H](C(C)C)O3)ccc2F)c1F (stereo in doubt) [Example 316, N-(4-((2S,4R,5S,6R)-4-amino-5-hydroxy-6-isopropyltetrahydro-2H-pyran-2-yl)pyridin-3-yl)-6-(2,6-difluoro-3-(methylcarbamoyl)phenyl)-5-fluoropicolinamide]
6 | 14.7 nM | 190 nM |  | 14.7 nM | 0.7 nM | CC(C)[C@H]1O[C@@H](c2ccncc2NC(=O)c2ccc(F)c(-c3c(F)ccc(C#N)c3F)n2)C[C@@H](N)[C@@H]1O [Example 329, N-(4-((2R,4R,5S,6R)-4-amino-5-hydroxy-6-isopropyltetrahydro-2H-pyran-2-yl)pyridin-3-yl)-6-(3-cyano-2,6-difluorophenyl)-5-fluoropicolinamide]
7 | > 25000 nM | > 10000 nM | 1290 nM | > 25000 nM | 12500 nM | C[C@H]1O[C@@H](c2ccncc2NC(=O)c2nn(Cc3ccccc3)cc2N)C[C@@H](O)[C@]1(C)O [Example 218, 4-amino-1-benzyl-N-(4-((2R,4R,5S,6R)-4,5-dihydroxy-5,6-dimethyltetrahydro-2H-pyran-2-yl)pyridin-3-yl)-1H-pyrazole-3-carboxamide]
8 | 229 nM | 2430 nM |  | 232 nM | 2 nM | CC(C)[C@H]1O[C@@H](c2ccncc2NC(=O)c2ccc(F)c(-c3ccc(C#N)cc3F)n2)C[C@@H](N)[C@@H]1O [Example 330, N-(4-((2R,4R,5S,6R)-4-amino-5-hydroxy-6-isopropyltetrahydro-2H-pyran-2-yl)pyridin-3-yl)-6-(4-cyano-2-fluorophenyl)-5-fluoropicolinamide]
9 | 11.8 nM | 70 nM |  | 6 nM | 0.2 nM | CC[C@H]1O[C@@H](c2ccncc2NC(=O)c2ccc(F)c(-c3c(F)cccc3F)n2)C[C@@H](N)[C@@H]1O [Example 331, N-(4-((2R,4R,5S,6R)-4-amino-6-ethyl-5-hydroxytetrahydro-2H-pyran-2-yl)pyridin-3-yl)-6-(2,6-difluorophenyl)-5-fluoropicolinamide]
10 | 165 nM | 540 nM |  | 172 nM | 7 nM | CC(C)[C@@H]1C[C@H](N)CC(c2ccncc2NC(=O)c2ccnc(-c3c(F)cccc3F)n2)O1 (stereo in doubt) [Example 328, N-(4-((2S,4S,6S)-4-amino-6-isopropyltetrahydro-2H-pyran-2-yl)pyridin-3-yl)-2-(2,6-difluorophenyl)pyrimidine-4-carboxamide]
11 | 6.2 nM |  | 183 nM | 0.5 nM | 0.04 nM | CC[C@]1(O)[C@H](N)C[C@H](c2ccncc2NC(=O)c2ccc(F)c(-c3c(F)cc(OC)cc3F)n2)O[C@@H]1C [Example 258, N-(4-((2R,4R,5S,6R)-4-amino-5-ethyl-5-hydroxy-6-methyltetrahydro-2H-pyran-2-yl)pyridin-3-yl)-6-(2,6-difluoro-4-methoxyphenyl)-5-fluoropicolinamide]
12 | 79.5 nM |  | 273 nM | 12.6 nM | 0.99 nM | O=C(Nc1cnccc1[C@H]1C[C@@H](O)[C@H](O)C2(CC2)O1)c1ccc(F)c(-c2c(F)cccc2F)n1 [Example 253, 6-(2,6-difluorophenyl)-N-(4-((5R,7R,8S)-7,8-dihydroxy-4-oxaspiro[2.5]octan-5-yl)pyridin-3-yl)-5-fluoropicolinamide]
13 | 393 nM |  | 6300 nM | 132 nM | 20.8 nM | N[C@@H]1C[C@H](c2ccncc2NC(=O)c2ccc(F)c(-c3c(F)cccc3F)n2)O[C@@H]2CCC(=O)N[C@@H]12 [Example 241, N-(4-((2R,4R,4aS,8aR)-4-amino-6-oxooctahydro-2H-pyrano[3,2-b]pyridin-2-yl)pyridin-3-yl)-6-(2,6-difluorophenyl)-5-fluoropicolinamide]
14 | > 25000 nM |  | 6020 nM | 20900 nM | 989 nM | C[C@@]1(O)[C@@H](O)C[C@@H](c2ccncc2NC(=O)c2nc(-c3c(F)cccc3F)ncc2N)O[C@H]1C1CC1 [Example 249, 5-amino-N-(4-((2S,4S,5R,6S)-6-cyclopropyl-4,5-dihydroxy-5-methyltetrahydro-2H-pyran-2-yl)pyridin-3-yl)-2-(2,6-difluorophenyl)pyrimidine-4-carboxamide]
15 | 6 nM |  | 1040 nM | 3.6 nM | 0.34 nM | CC(C)(C)[C@H]1O[C@@H](c2ccncc2NC(=O)c2nc(-c3c(F)cccc3F)ncc2N)C[C@@H](N)[C@@H]1O [Example 260, 5-amino-N-(4-((2R,4R,5S,6R)-4-amino-6-tert-butyl-5-hydroxytetrahydro-2H-pyran-2-yl)pyridin-3-yl)-2-(2,6-difluorophenyl)pyrimidine-4-carboxamide]
16 | 9.6 nM |  | 1050 nM | 2.3 nM | 0.13 nM | COc1cc(F)c(-c2nc(C(=O)Nc3cnccc3[C@H]3C[C@@H](N)[C@](C)(O)[C@@H](C4CC4)O3)ccc2F)c(F)c1 [Example 265, N-(4-((2R,4R,5S,6R)-4-amino-6-cyclopropyl-5-hydroxy-5-methyltetrahydro-2H-pyran-2-yl)pyridin-3-yl)-6-(2,6-difluoro-4-methoxyphenyl)-5-fluoropicolinamide]
17 | 10.9 nM |  | 1220 nM | 9 nM | 0.66 nM | CC(C)[C@H]1O[C@@H](c2ccncc2NC(=O)c2nc(-c3c(F)cccc3F)ncc2N)C[C@@H](N)[C@@H]1O [Example 272, 5-amino-N-(4-((2R,4R,5S,6R)-4-amino-5-hydroxy-6-isopropyltetrahydro-2H-pyran-2-yl)pyridin-3-yl)-2-(2,6-difluorophenyl)pyrimidine-4-carboxamide]
18 | 9.9 nM |  | 7420 nM | 7.6 nM | 0.35 nM | N[C@@H]1C[C@H](c2ccncc2NC(=O)c2ccc(F)c(-c3c(F)cccc3F)n2)O[C@H](C2CC2)[C@H]1O [Example 235, N-(4-((2R,4R,5S,6R)-4-amino-6-cyclopropyl-5-hydroxytetrahydro-2H-pyran-2-yl)pyridin-3-yl)-6-(2,6-difluorophenyl)-5-fluoropicolinamide]
19 | 72.7 nM |  | 334 nM | 23.1 nM | 1.26 nM | C[C@]1(O)[C@H](N)C[C@H](c2ccncc2NC(=O)c2csc(-c3c(F)cccc3F)n2)O[C@@H]1C1CC1 [Example 263, N-(4-((2R,4R,5S,6R)-4-amino-6-cyclopropyl-5-hydroxy-5-methyltetrahydro-2H-pyran-2-yl)pyridin-3-yl)-2-(2,6-difluorophenyl)thiazole-4-carboxamide]
20 | 213 nM |  | 6930 nM | 29.7 nM | 2.5 nM | C[C@]1(O)[C@H](N)C[C@H](c2ccncc2NC(=O)c2ccc(F)c(-c3c(F)cccc3F)n2)OC12CC2 [Example 289, N-(4-((5R,7R,8S)-7-amino-8-hydroxy-8-methyl-4-oxaspiro[2.5]octan-5-yl)pyridin-3-yl)-6-(2,6-difluorophenyl)-5-fluoropicolinamide]
